In brackets after ≈: the same amount, converted by molar mass. Where two headings read alike, the source gives them in different places.
Tests used:
in vitro = format: cell-based, human; conditions: human; MRC-5 (lung fibroblast); 24 h; one biological replicate (n = 3); read-out: CC50 for human cells
Description: (§1) as a range from biological replicates. Inhibition curves were generated using Prism (GraphPad).
(§2) The IC50 values reported in Table 2 are the average of the two biological replicates ± standard […]
(§3) Cytotoxicity Assay Procedure
(§4) Human lung fibroblast cells, MRC -5 (CCL-171), were cultured at 37℃ with 5% CO2 and were plated at 5000 cells/well in a 96 -well plate. Compounds 1, 2, and 15-22 were initially prepared at concentrations of 5.12 mg/mL in a vehicle of 50% DMSO. Dilutions of the compounds (4 – 512 μg/mL) were then prepared in growth medium containing Dulbecco’s modified Eagle’s medium (DMEM) with high glucose, L -glutamine, and sodium pyruvate supplemented with 10% fetal bovine serum (FBS), 1% non -essential amino acids, and 0.1% gentamicin sulfate, and 25mM HEPES. The vehicle (50% DMSO) was also prepared via the sa me dilution series to serve as a control. Growth media was removed from the cells and replaced with the same volume of each compound dilution. Cells were incubated for 24 h , after which CellTiter 96® AQueous One Solution Reagent was added to each well as recommended by the manufacturer’s protocol (Promega CellTiter 96 AQueous One Solution Cell Proliferation Assay) and further incubated for 4 h. After incubation, absorbance was measured at 490 nm on an Infinite M plex multimode microplate reader with i -control Tecan software. Viability was calculated by subtracting media only absorbance values and normalizing to the vehicle control at each concentration. The presented data is one assay performed in triplicate that is representative of multiple trials. Data for the 256 and 512 μg/mL concentrations were removed from analysis due to vehicle toxicity […]
(§5) CC50 concentrations were determined via the ED50 Plus v1.0 software (https://archive.org/details/ed50v10_zip).
Figure S41. The effect of compounds on cell viability. The lines represent non -linear regression curves, and error bars represent means ± […]
SD (n=3). […]

S. aureus 8810 = assay: Broth microdilution antibacterial assay; format: cell-based, Staphylococcus aureus
Description: (§6) Antibacterial Assay Procedure
(§7) Broth Microdilution Assays
(§8) Media and solutions were autoclaved or sterile filtered prior to use and manipulations were carried out in a laminar flow hood. Antibacterial testing was performed in polypropylene 96 -well flat bottom plates. The minimal inhibitory concentration of blasticidin S ( 1) hydrochloride, P10 (2), and derivatives 15–22 were assessed against Staphylococcus aureus ΔNorA, S. aureus 8810, methicillin-resistant S. aureus (MRSA) ATCC 43300, Enterococcus faecalis ATCC 29212, vancomycin-resistant Enterococcus, Klebsiella pneumoniae ATCC 29665, Pseudomonas aeruginosa, and Acinetobacter baumannii ATCC 17978 using serial dilutions. Doxycycline (Gold Bio) as a positive control and the vehicle as a negative control. Stock solutions of each compound were prepared at 5.12 mg/mL in 50% DMSO/water and serially diluted in 50% DMSO/water to create master plates. From the master plates, 10 μL of each dilution was applied to test plates using a Bravo automated liquid transfer system (Agilent). Bacteria previously grown overnight (37 °C, 120 – 200 RPM), in LB broth were diluted to an OD600 of 0.0 5 in cation-adjusted Mueller-Hinton broth, grown to an OD600 of ~0.5, and diluted to an OD600 of 0.004 in cation-adjusted Mueller-Hinton broth. These diluted cultures were applied to the test plates (190 μL per test well) resulting in final concentrations of the test compounds of 256–2 μg/mL. Growth controls (wells with inoculated media but no vehicle or test compounds) were included to assess any potential toxicity from the vehicle. The plates were incubated at 37 °C for 16–18 h, except for VRE and E. faecalis, which were incubated at 37 °C for 24 h. Inhibition was determined by measuring the optical density at 600 nm (OD600) with a Cytation 3 plate reader (BioTek). The optical density measurements were normalized to the positive and negative controls and the vehicle and growth controls were compared and found to be indistinguishable, indicating no toxicity from the vehicle used. The MIC was the lowest concentration that inhibited >90% of growth. Two biological replicates were performed in duplicate. MIC values are reported […]
as §1, §2, §3, §4, §5

[1] = system: methicillin-resistant S. aureus (MRSA) ATCC 43300; assay: Broth microdilution antibacterial assay; format: cell-based, Staphylococcus aureus
Description: as §6, §7, §8, §1, §2, §3, §4, §5

[2] = system: vancomycin-resistant Enterococcus (VRE); assay: Broth microdilution antibacterial assay; format: cell-based
Description: as §6, §7, §8, §1, §2, §3, §4, §5

[3] = system: Acinetobacter baumannii ATCC 17978; assay: Broth microdilution antibacterial assay; format: cell-based
Description: as §6, §7, §8, §1, §2, §3, §4, §5

Pseudomonas aeruginosa = assay: Broth microdilution antibacterial assay; format: cell-based
Description: as §6, §7, §8, §1, §2, §3, §4, §5

[4] = system: Enterococcus faecalis ATCC 29212; assay: Broth microdilution antibacterial assay; format: cell-based
Description: as §6, §7, §8, §1, §2, §3, §4, §5

[5] = system: Klebsiella pneumoniae ATCC 29665; assay: Broth microdilution antibacterial assay; format: cell-based
Description: as §6, §7, §8, §1, §2, §3, §4, §5

[6] = system: Staphylococcus aureus ΔNorA; assay: Broth microdilution antibacterial assay; format: cell-based
Description: as §6, §7, §8, §1, §2, §3, §4, §5

[7] = Acinetobacter baumannii, ATCC17978
[8] = Klebsiella pneumoniae, ATCC29665

SMILES: CCCNC(=O)[C@H]1O[C@@H](n2ccc(N)nc2=O)C=C[C@@H]1NC(=O)C[C@@H](N)CCN(C)C(=N)N [Compound 17]
- CC50 at 24 h (in vitro): 61.1 mg/L (≈ 132 µM)
- Selectivity index (CC50/IC50) (S. aureus 8810; MRC-5 CC50 / S. aureus IC50): 16
- IC50 (S. aureus 8810; Staphylococcus aureus, 8810): 3.9 ± 0.1 mg/L (≈ 8.41 µM)
- MIC (S. aureus 8810; Staphylococcus aureus, 8810): 16 to 32 mg/L (≈ 34.5 to 69 µM)
- MIC (S. aureus 8810; Staphylococcus aureus, 8810, read-out: Average Activity against S. aureus): 24 mg/L (≈ 51.8 µM)
- Selectivity index (CC50/IC50) ([1]; MRC-5 CC50 / MRSA IC50): 8.1
- IC50 ([1]; Staphylococcus aureus): 7.6 ± 0.8 mg/L (≈ 16.4 µM)
- MIC ([1]; Staphylococcus aureus): 16 to 32 mg/L (≈ 34.5 to 69 µM)
- MIC ([1]; Staphylococcus aureus, read-out: Average Activity against MRSA): 24 mg/L (≈ 51.8 µM)
- IC50 ([2]; Enterococcus, VRE): 16.8 ± 3.1 mg/L (≈ 36.2 µM)
- MIC ([2]; Enterococcus, VRE, 24 h): 64 mg/L (≈ 138 µM)
- MIC ([2]; Enterococcus, VRE, read-out: Average Activity against VRE): 64 mg/L (≈ 138 µM)
- Selectivity index (CC50/IC50) ([2]; MRC-5 CC50 / VRE IC50): 3.6
- IC50 [3, 7]: 39.3 ± 1.9 mg/L (≈ 84.8 µM)
- MIC [3, 7]: > 256 mg/L
- Selectivity index (CC50/IC50) ([3]; MRC-5 CC50 / A. baumannii IC50): 1.6
- Selectivity index (CC50/IC50) (Pseudomonas aeruginosa; MRC-5 CC50 / P. aeruginosa IC50): 3.2
- IC50 (Pseudomonas aeruginosa; Pseudomonas aeruginosa): 19.3 ± 1.6 mg/L (≈ 41.6 µM)
- MIC (Pseudomonas aeruginosa; Pseudomonas aeruginosa): 64 mg/L (≈ 138 µM)
- IC50 ([4]; Enterococcus faecalis, ATCC29212): 9.3 ± 1.7 mg/L (≈ 20.1 µM)
- MIC ([4]; Enterococcus faecalis, ATCC29212, 24 h): 16 to 32 mg/L (≈ 34.5 to 69 µM)
- MIC ([4]; Enterococcus faecalis, ATCC29212, read-out: Average Activity against E. faecalis): 16 mg/L (≈ 34.5 µM)
- Selectivity index (CC50/IC50) ([4]; MRC-5 CC50 / E. faecalis IC50): 6.6
- IC50 [5, 8]: 44.9 ± 3.2 mg/L (≈ 96.9 µM)
- MIC [5, 8]: 128 to 256 mg/L (≈ 276 to 552 µM)
- Selectivity index (CC50/IC50) ([5]; MRC-5 CC50 / K. pneumoniae IC50): 1.4
- Selectivity index (CC50/IC50) ([6]; MRC-5 CC50 / S. aureus ΔNorA IC50): 3.9
- IC50 ([6]; Staphylococcus aureus): 15.8 ± 1.1 mg/L (≈ 34.1 µM)
- MIC ([6]; Staphylococcus aureus): 64 to 128 mg/L (≈ 138 to 276 µM)
